Reference: article PMC11864979, “First-in-class ultralong-target-residence-time p38α inhibitors as a mitosis-targeted therapy for colorectal cancer” (Nature Cancer, 2025)
Where two headings read alike, the source gives them in different places.

Key:
Test in all cases: selectivity profiling in a panel of 340 wild-type kinases (Reaction Biology Europe)
Format in all cases: binding
[1] = target: T1, 340 wild-type kinases (Homo sapiens, UniProt Q9Y6M4)
T1 construct: purchased Reaction Biology Europe
T1 sequence (Q9Y6M4 whole entry): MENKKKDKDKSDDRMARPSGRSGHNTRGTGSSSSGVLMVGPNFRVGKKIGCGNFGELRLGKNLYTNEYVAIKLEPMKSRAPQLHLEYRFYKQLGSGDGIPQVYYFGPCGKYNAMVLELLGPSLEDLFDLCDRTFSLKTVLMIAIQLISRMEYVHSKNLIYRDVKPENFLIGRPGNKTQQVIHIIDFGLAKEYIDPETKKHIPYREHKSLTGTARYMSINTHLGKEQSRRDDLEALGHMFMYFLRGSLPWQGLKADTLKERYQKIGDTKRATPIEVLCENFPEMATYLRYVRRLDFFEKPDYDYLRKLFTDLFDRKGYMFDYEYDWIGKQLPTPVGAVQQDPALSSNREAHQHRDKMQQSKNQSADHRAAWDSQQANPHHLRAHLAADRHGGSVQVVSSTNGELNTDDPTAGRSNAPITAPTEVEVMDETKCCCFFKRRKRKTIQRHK

[2] = target: T2, 340 wild-type kinases (Homo sapiens, UniProt Q8TD19)
T2 construct: purchased Reaction Biology Europe
T2 sequence (Q8TD19 1-979): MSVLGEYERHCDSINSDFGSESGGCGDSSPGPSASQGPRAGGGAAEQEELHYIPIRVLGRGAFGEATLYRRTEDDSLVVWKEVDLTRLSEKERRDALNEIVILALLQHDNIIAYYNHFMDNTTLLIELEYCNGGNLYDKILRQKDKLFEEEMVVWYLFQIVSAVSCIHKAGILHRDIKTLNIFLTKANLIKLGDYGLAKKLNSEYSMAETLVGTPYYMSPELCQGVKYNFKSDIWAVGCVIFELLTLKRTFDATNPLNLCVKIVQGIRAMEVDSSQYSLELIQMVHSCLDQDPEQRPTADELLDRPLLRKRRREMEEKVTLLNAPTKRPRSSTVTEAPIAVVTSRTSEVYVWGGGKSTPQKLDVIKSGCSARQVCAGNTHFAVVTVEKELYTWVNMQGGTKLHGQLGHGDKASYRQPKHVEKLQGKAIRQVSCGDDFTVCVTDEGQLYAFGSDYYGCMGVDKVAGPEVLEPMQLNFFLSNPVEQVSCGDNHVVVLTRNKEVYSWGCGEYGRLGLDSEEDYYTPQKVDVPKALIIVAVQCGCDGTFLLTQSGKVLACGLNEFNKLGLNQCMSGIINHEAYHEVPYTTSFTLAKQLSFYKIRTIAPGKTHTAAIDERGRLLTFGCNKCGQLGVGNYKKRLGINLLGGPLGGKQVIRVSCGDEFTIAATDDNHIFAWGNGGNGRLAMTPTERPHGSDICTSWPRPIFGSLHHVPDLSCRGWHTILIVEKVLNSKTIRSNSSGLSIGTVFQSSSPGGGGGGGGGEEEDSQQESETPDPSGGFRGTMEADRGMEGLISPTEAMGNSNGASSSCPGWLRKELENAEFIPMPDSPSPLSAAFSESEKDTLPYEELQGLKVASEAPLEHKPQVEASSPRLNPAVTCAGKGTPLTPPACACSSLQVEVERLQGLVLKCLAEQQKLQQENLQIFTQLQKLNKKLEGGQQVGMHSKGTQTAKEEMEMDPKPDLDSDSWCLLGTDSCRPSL

[3] = target: T3, 340 wild-type kinases (Homo sapiens, UniProt Q9HC98)
T3 construct: purchased Reaction Biology Europe
T3 sequence (Q9HC98 whole entry): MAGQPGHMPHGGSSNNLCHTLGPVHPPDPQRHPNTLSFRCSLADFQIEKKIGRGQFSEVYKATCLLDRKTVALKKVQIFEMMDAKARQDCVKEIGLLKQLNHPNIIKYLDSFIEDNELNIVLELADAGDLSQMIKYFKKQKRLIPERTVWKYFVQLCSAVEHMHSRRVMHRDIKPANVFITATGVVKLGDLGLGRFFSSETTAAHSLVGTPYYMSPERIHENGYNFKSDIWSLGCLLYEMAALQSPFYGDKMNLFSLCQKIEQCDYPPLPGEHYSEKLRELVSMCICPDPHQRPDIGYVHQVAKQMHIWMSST

[4] = target: T4, 340 wild-type kinases (Homo sapiens, UniProt O00506)
T4 construct: purchased Reaction Biology Europe
T4 sequence (O00506 whole entry): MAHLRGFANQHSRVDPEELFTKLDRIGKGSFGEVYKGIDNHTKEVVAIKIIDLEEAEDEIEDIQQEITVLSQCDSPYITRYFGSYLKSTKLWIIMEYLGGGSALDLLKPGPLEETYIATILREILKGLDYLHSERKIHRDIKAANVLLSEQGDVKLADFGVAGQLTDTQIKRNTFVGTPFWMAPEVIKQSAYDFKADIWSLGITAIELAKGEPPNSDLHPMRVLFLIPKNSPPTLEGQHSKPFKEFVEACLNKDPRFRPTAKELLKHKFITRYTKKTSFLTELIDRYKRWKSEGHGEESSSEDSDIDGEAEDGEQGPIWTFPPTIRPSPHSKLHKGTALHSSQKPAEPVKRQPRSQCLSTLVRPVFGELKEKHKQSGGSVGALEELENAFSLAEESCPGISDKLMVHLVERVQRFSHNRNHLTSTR

[5] = target: T5, 340 wild-type kinases (Homo sapiens, UniProt O43293)
T5 construct: purchased Reaction Biology Europe
T5 sequence (O43293 whole entry): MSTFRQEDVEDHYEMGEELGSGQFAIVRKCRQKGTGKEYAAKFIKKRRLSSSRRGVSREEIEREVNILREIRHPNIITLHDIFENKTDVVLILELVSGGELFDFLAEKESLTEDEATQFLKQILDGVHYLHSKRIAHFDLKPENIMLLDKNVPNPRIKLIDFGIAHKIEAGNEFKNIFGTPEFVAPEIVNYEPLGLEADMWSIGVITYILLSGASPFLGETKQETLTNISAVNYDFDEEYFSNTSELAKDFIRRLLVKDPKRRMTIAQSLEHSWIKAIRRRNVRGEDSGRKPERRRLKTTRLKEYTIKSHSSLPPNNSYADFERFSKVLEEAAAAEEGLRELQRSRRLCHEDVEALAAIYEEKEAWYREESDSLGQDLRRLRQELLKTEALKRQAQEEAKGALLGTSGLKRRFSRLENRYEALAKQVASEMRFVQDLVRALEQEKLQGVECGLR

[6] = target: T6, 340 wild-type kinases (Homo sapiens, UniProt P54762)
T6 construct: purchased Reaction Biology Europe
T6 sequence (P54762 18-984): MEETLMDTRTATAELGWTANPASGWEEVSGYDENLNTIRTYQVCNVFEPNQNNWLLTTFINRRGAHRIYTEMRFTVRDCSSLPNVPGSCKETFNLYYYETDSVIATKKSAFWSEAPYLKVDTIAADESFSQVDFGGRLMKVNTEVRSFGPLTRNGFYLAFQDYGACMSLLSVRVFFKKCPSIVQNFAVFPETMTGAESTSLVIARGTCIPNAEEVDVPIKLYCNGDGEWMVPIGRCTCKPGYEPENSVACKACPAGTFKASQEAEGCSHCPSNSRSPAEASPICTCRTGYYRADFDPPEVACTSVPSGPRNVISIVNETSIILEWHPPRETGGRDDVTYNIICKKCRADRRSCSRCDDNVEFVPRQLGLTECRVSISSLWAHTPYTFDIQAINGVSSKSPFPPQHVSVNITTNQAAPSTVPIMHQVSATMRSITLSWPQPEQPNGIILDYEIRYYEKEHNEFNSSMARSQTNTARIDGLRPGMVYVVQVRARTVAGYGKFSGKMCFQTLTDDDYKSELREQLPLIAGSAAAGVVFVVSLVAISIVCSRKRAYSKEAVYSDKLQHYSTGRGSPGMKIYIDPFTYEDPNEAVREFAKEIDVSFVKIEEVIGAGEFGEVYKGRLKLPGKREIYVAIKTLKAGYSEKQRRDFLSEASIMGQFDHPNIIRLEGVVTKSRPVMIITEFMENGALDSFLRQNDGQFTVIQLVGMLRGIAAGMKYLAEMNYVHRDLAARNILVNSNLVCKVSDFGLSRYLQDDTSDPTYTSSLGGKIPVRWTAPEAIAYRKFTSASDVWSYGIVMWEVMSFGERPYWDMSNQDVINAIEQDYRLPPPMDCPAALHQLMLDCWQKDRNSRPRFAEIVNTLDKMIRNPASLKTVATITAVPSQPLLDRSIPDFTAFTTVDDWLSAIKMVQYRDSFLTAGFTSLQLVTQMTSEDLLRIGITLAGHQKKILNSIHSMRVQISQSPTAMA

[7] = target: T7, 340 wild-type kinases (Homo sapiens, UniProt P51617)
T7 construct: purchased Reaction Biology Europe
T7 sequence (P51617 whole entry): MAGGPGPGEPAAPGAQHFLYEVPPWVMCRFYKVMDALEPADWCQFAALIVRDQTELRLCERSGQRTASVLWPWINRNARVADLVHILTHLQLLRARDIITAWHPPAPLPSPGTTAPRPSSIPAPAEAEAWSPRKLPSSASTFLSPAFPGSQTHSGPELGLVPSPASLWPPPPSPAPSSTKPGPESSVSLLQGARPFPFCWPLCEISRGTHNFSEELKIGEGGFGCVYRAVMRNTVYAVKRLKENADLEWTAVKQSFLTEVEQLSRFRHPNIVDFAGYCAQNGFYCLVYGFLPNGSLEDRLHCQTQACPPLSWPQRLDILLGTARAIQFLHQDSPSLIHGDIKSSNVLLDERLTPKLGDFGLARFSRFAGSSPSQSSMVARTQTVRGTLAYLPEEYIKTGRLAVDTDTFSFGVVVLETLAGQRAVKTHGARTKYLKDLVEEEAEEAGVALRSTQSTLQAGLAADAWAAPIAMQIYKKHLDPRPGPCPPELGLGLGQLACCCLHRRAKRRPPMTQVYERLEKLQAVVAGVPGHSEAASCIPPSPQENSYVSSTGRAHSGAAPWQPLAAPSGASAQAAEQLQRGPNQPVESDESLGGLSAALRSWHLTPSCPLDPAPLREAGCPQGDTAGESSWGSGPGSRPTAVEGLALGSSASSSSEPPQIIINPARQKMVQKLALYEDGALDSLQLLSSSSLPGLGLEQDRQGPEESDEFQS

[8] = target: T8, 340 wild-type kinases (Homo sapiens, UniProt Q13177)
T8 construct: purchased Reaction Biology Europe
T8 sequence (Q13177 whole entry): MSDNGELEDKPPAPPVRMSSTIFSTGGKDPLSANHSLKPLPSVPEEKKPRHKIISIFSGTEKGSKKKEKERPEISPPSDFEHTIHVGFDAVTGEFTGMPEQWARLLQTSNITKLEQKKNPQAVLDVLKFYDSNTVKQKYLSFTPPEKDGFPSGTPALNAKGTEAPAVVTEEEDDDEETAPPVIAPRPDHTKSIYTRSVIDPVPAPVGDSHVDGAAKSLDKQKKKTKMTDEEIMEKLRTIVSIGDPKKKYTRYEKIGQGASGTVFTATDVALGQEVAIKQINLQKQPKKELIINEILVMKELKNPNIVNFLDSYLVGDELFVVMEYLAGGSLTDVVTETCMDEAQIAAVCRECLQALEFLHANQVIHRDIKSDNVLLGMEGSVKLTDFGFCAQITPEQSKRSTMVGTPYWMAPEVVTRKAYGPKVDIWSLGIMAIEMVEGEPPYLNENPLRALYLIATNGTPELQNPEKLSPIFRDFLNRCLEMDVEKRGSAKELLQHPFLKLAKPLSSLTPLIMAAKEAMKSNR

[9] = target: T9, 340 wild-type kinases (Homo sapiens, UniProt Q9Y463)
T9 construct: purchased Reaction Biology Europe
T9 sequence (Q9Y463 whole entry): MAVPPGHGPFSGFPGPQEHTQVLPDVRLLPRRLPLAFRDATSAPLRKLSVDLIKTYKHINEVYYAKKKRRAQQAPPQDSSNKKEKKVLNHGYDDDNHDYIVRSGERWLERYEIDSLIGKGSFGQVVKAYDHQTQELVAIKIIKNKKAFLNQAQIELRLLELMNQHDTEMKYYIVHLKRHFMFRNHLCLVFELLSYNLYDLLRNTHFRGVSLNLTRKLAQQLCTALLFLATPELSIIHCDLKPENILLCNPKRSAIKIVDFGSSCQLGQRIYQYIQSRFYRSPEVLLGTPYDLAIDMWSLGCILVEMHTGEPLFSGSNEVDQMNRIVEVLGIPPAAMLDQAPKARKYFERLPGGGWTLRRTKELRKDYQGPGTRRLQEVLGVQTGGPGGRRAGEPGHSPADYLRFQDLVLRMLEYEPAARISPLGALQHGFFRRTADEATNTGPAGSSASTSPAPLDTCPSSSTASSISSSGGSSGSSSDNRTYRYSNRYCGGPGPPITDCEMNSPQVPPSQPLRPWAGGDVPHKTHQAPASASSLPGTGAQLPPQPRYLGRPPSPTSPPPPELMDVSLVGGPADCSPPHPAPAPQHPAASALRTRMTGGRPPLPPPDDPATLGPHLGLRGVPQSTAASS

CNC(=O)c1ccc2c(c1)C(=O)c1ccc(Nc3ccc(F)c(NC(=O)C4CC4)c3)cc1CC2 [Compound 2015] showed a remaining activity at 0.2 µM ([1]; 0.2 µM 2015, read-out: CK1gamma3 residual activity) of 93.4%, a remaining activity at 1 µM ([1]; 1 µM 2015, read-out: CK1gamma3 residual activity) of 91% and a remaining activity at 0.2 µM ([1]; CK1gamma3, 0.2 µM, read-out: residual activity) of 93.4%. For the same compound, the remaining activity at 1 µM ([1]; CK1gamma3, 1 µM, read-out: residual activity) was 91%, the remaining activity at 0.2 µM ([2]; 0.2 µM 2015, read-out: NEK9 residual activity) was 96.5% and the remaining activity at 1 µM ([2]; 1 µM 2015, read-out: NEK9 residual activity) was 93%. The remaining activity at 0.2 µM ([2]; NEK9, 0.2 µM, read-out: residual activity) was 96.5%, the remaining activity at 1 µM ([2]; NEK9, 1 µM, read-out: residual activity) was 93% and the remaining activity at 0.2 µM ([3]; 0.2 µM 2015, read-out: NEK6 residual activity) was 95.6%. For the same compound, the remaining activity at 1 µM ([3]; 1 µM 2015, read-out: NEK6 residual activity) was 99.3%, the remaining activity at 0.2 µM ([3]; NEK6, 0.2 µM, read-out: residual activity) was 95.6% and the remaining activity at 1 µM ([3]; NEK6, 1 µM, read-out: residual activity) was 99.3%. The remaining activity at 0.2 µM ([4]; 0.2 µM 2015, read-out: STK25 residual activity) was 88.2%, the remaining activity at 1 µM ([4]; 1 µM 2015, read-out: STK25 residual activity) was 83.6% and the remaining activity at 0.2 µM ([4]; STK25, 0.2 µM, read-out: residual activity) was 88.2%. It also gave a remaining activity at 1 µM ([4]; STK25, 1 µM, read-out: residual activity) of 83.6%, a remaining activity at 0.2 µM ([5]; 0.2 µM 2015, read-out: DAPK3 residual activity) of 110% and a remaining activity at 1 µM ([5]; 1 µM 2015, read-out: DAPK3 residual activity) of 115%. It also gave a remaining activity at 0.2 µM ([5]; DAPK3, 0.2 µM, read-out: residual activity) of 110%, a remaining activity at 1 µM ([5]; DAPK3, 1 µM, read-out: residual activity) of 115% and a remaining activity at 0.2 µM ([6]; 0.2 µM 2015, read-out: EPHB1 residual activity) of 118%. For the same compound, the remaining activity at 1 µM ([6]; 1 µM 2015, read-out: EPHB1 residual activity) was 103%, the remaining activity at 0.2 µM ([6]; EPHB1, 0.2 µM, read-out: residual activity) was 118% and the remaining activity at 1 µM ([6]; EPHB1, 1 µM, read-out: residual activity) was 103%. It also gave a remaining activity at 0.2 µM ([7]; 0.2 µM 2015, read-out: IRAK1 residual activity) of 108%, a remaining activity at 1 µM ([7]; 1 µM 2015, read-out: IRAK1 residual activity) of 94.2% and a remaining activity at 0.2 µM ([7]; IRAK1, 0.2 µM, read-out: residual activity) of 108%. For the same compound, the remaining activity at 1 µM ([7]; IRAK1, 1 µM, read-out: residual activity) was 94.2%, the remaining activity at 0.2 µM ([8]; 0.2 µM 2015, read-out: PAK2 residual activity) was 103% and the remaining activity at 1 µM ([8]; 1 µM 2015, read-out: PAK2 residual activity) was 102%. The remaining activity at 0.2 µM ([8]; PAK2, 0.2 µM, read-out: residual activity) was 103%, the remaining activity at 1 µM ([8]; PAK2, 1 µM, read-out: residual activity) was 102% and the remaining activity at 0.2 µM ([9]; 0.2 µM 2015, read-out: DYRK1B residual activity) was 96.9%. It also gave a remaining activity at 1 µM ([9]; 1 µM 2015, read-out: DYRK1B residual activity) of 94.1%, a remaining activity at 0.2 µM ([9]; DYRK1B, 0.2 µM, read-out: residual activity) of 96.9% and a remaining activity at 1 µM ([9]; DYRK1B, 1 µM, read-out: residual activity) of 94.1%.
